Data from US8791258B2, “Pro-fluorescent probes” (The Regents of the University of California, priority 2008, dated 2014).

Experiments:
[1] = Kinetics of H2O2-mediated boronate deprotection; conditions: pseudo-first-order conditions, 5 μM dye, 10 mM H2O2
Description: (§1) MitoPY1 features two major visible region absorptions (λabs=489 nm, ε=14,300 M^−1 cm^−1; 510 nm, ε=14,200 M^−1 cm^−1) and a weak emission (λ=540 nm, Φ=0.019, FIG. S1) in 20 mM HEPES, pH 7. […] Kinetics measurements of the H2O2-mediated boronate deprotection were performed under pseudo-first-order conditions (5 μM dye, 10 mM H2O2), giving an observed rate constant of k=2.0(1)×10^−3 s^−1.

HeLa cells [2] = type: cell-based
Description: 100 μM H2O2 was then added to one of the petri dishes. At 20 minutes, 50 nM MitoTracker Deep Red, 500 nM Lysotracker Red, and 1 μM Hoechst 33342 were added to both dishes. After an additional 20 minutes (40 minute stimulation total), the two coverslips were put in a single, new petri dish filled with fresh DPBS and confocal images were taken (3.2 μsec pixel time, 100% laser power for 514 line, 4.1% laser power for the 633 line, 26% laser power for the 543 line, scanned using 12-bit multi-track scan mode using a constant receiver gain). Shown above are signals from MitoPY1 (a), MitoTracker Deep Red (b), LysoTracker Red (c), an overlay of MitoTracker Deep Red and MitoPY1 (d), Hoechst (e), and a brightfield image (f) of cells not treated with H2O2, as well as signals from MitoPY1 (g), MitoTracker Deep Red (h), LysoTracker Red (i), an overlay of MitoTracker Deep Red and MitoPY1 (j), Hoechst (k), and a brightfield image (l) of cells treated with H2O2. A 20 μm scale bar shown for all images.
HeLa cells incubated with 5 μM MitoPY1 for 60 min at 37° C. and imaged with MitoPY1 (a), MitoTracker Red and Hoechst (overlay, b), and MitoPY1 with MitoTracker Red (overlay, c). HeLa cells incubated with 5 μM MitoPY1 for 60 min at 37° C. with 100 μM H2O2 added for the final 40 min and imaged with MitoPY1 (d), MitoTracker Red and Hoechst (overlay, e), MitoPY1 and MitoTracker Red (overlay, f), and brightfield (g) with 20 μm scale bar. HeLa cells incubated with 5 μM MitoPY1 for 60 min at 37° C. and imaged with MitoPY1 (h), MitoTracker Red and Hoechst (overlay, i), and MitoPY1 with MitoTracker Red (overlay, j). HeLa cells incubated for 24 h with 1 mM paraquat, then washed and incubated with 5 μM MitoPY1 for 60 min at 37° C. and imaged with MitoPY1 (k), MitoTracker Red and Hoechst (overlay, l), MitoPY1 and MitoTracker Red (overlay, m), and brightfield (n) with 20 μm scale bar.
HEK293 cells were cultured in DMEM (Invitrogen) supplemented with 10% fetal bovine serum (FBS, Hyclone) and glutamine (2 mM). CHO.K1 cells were cultured in DMEM with F-12 supplements, glutamax (Invitrogen), and 5% FBS. Cos-7 cells were cultured in DMEM with high glucose, glutamax, 10% FBS, and non-essential amino acids (Invitrogen). HeLa cells were cultured in DMEM with high glucose, glutamax, and 10% FBS. Two days before imaging, cells were passaged and plated on 18-mm glass coverslips. For all experiments, solutions of dyes (from 5 mM stocks in DMSO) were made in DBPS with calcium chloride and magnesium chloride (Sigma). H2O2 was added by bath application to the medium from a 100 mM aqueous stock. For paraquat treatment, HeLa cells were cultured as described above. One day prior to imaging, 1 mM paraquat was added to cells from a 0.5 M stock solution in water. An equal amount of water was added to control cells at the same time. Cells were then incubated at 37° C., 5% CO2. After 24 hours, the media was exchanged for DPBS with 5 μM dye and incubated for 1 hour.
Confocal fluorescence imaging studies were performed with a Zeiss LSM510 NLO Axiovert 200 laser scanning microscope and a 63× Achroplan IR water-immersion objective lens. Excitation of PY-loaded cells at 510 nm was carried out with an Ar laser and emission was collected using a META detector between 527-580 nm. MitoTracker Deep Red was excited with a 633-nm line and emission was collected between 666-698 nm. LysoTracker Red was excited with a 543-nm line and emission was collected between 580-644 nm. Excitation of Hoechst 33342 was carried out using a MaiTai two-photon laser at 780-nm pulses (mode-locked Ti:sapphire laser, Tsunami Spectra Physics) and emission was collected between 452-537 nm. Image analysis was performed in Adobe Photoshop.
MitoPY1 was tested for its ability to both target the mitochondria and respond to H2O2 in living biological systems. […] Again, co-staining with MitoTracker confirms that the dye is retained in the mitochondria and detects localized rises in H2O2 concentrations.

[3] = Turn-on fluorescence responses to a panel of biologically relevant ROS; conditions: 20 mM HEPES, pH 7, 25° C.
Description: Bars represent relative responses at 0, 5, 15, 30, 45, and 60 min after addition of each ROS. Data shown are for 10 mM O2- (with 10 μM catalase), 200 μM NO, and 100 μM for all other ROS. Data were acquired at 25° C. in 20 mM HEPES, pH 7, with excitation at λ=510 nm and emission collected between 518 and 750 nm.
as §1

[4] = Absorption and emission properties, fluorescence quantum yield; type: physicochemical; conditions: 20 mM HEPES, pH 7
Description: (§2) Millipore water was used to prepare all aqueous solutions. All spectroscopic measurements were performed in 20 mM HEPES buffer, pH 7. Absorption spectra were recorded using a Varian Cary 50 spectrophotometer (Walnut Creek, Calif.). Fluorescence spectra were recorded using a Photon Technology International Quanta Master 4 L-format scanning spectrofluorometer (Lawrenceville, N.J.) equipped with an LPS-220B 75-W xenon lamp and power supply, A-1010B lamp housing with integrated igniter, switchable 814 photon-counting/analog photomultiplier detection unit, and MD5020 motor driver. Samples for absorption and fluorescence measurements were contained in 1-cm×1-cm quartz cuvettes (1.4- or 3.5-mL volume, Starna, Atascadero, Calif.).
as §2, with “recorded on” for “recorded using”, “Creek, Calif.) and fluorescence” for “Creek, Calif.). Fluorescence”, “and emission” for “and fluorescence”, “cuvettes (1.5-mL” for “cuvettes (1.4- or 3.5-mL”, “Calif.). Fluorescence quantum yields were determined by reference to fluorescein in 0.1M NaOH (Φ=0.95).” for “Calif.).”

HeLa cells [5] = conditions: cited from earlier work

SMILES	observed rate constant k of H2O2-mediated boronate deprotection [1]	cell viability during imaging (HeLa cells [2])	fluorescence of probe-loaded cells without H2O2 (HeLa cells [2]; 5 μM probe, 1 h at 37° C.)	subcellular localization (co-staining with MitoTracker Deep Red, LysoTracker Red) (HeLa cells [2]; 5 μM probe, 50 nM MitoTracker Deep Red, 500 nM LysoTracker Red)	fluorescence after addition of H2O2 compared to control cells (HeLa cells [2]; 100 μM H2O2)	detection of endogenous mitochondrial H2O2 in paraquat-treated cells (HeLa cells [2]; 1 mM paraquat 24 h, then 5 μM probe, compared to control cells)	selectivity of turn-on response for H2O2 over other ROS [3]	fluorescence quantum yield Φ ([4]; by reference to fluorescein)	extinction coefficient ε at 489 nm ([4]; λabs 489 nm)	extinction coefficient ε at 510 nm ([4]; λabs 510 nm)	IC50 (HeLa cells [5]) [µM]
CC1(C)OB(c2ccc3c(c2)Oc2cc(N4CCN(CCCC[P+](c5ccccc5)(c5ccccc5)c5ccccc5)CC4)ccc2C32OC(=O)c3ccccc32)OC1(C)C.[I-] (centres unmarked) [MitoPY1]	2.0(1)×10^−3 s^−1	cells are viable throughout the imaging experiments	faint but measurable levels of fluorescence	localized to the mitochondria	marked localized increase in fluorescence	clear increases in mitochondrial-localized H2O2 levels	selective for H2O2 over ROS like superoxide, nitric oxide, and hydroxyl radical	0.019	14,300 M^−1 cm^−1	14,200 M^−1 cm^−1	–
C[n+]1ccc(-c2cc[n+](C)cc2)cc1 [paraquat]	–	–	–	–	–	–	–	–	–	–	1020
